Counter-ions that a name gives are not always drawn. Like-named read-outs stand apart in the source and are kept apart here.
Target: T1, cdMMP-8 (Homo sapiens, UniProt P22894)
T1 construct: recombinant catalytic domain of human neutrophile Collagenase (cdMMP-8^Met80); made in house; host or cells: E. coli
Assay: MMP microfluorometric profiling assay (fluorogenic Mca-peptide substrate)
Type: biochemical
Experimental: The tested MMP enzymes were prepared more specifically in the laboratories of the applicants, with the exception of MMP-1. MMP-1 from human rheumatoid synovial fibroblasts was purchased from Calbiochem-Novabiochem Corporation, LaJolla. Preparation of the recombinant catalytic domain of human Gelatinase A (cdMMP-2): The catalytic domain of Pro-Gelatinase A was prepared using an E. coli expression system according to the method described by Kröger et al^[19]. The proenzyme was activated with 0.5 mM APMA at 37°C prior to use in the assay. […] Preparation of PMNL-Gelatinase (MMP-9): Latent PMNL-pro-Gelatinase was prepared from human plasma buffy coat as described by Tschesche et al^[21]. PMNL-pro-Gelatinase was activated prior to use by incubation with Trypsin at 37°C for 10 min. Inactivation of Trypsin was accomplished with TKI. […] The overexpressed protein was isolated as inclusion bodies and the renatured protein was purified by affinity chromatography with a hydroxamate inhibitor coupled column as described^[22]. Preparation of the recombinant catalytic domain of human Collagenase-3 (cdMMP-13): Human pro-cdMMP-13 was prepared using an E. coli expression system according to the method described^[23]. The isolated pro-cdMMP-13 was activated prior to use by incubation with 5 mM HgCl2 for 2 h at 37°C.
The enzymatic activity was measured using a modified version of a resonance energy transfer fluorogenic assay as described^[26]. […] The fluorescent MCA-group is quenched by resonance energy transfer to the 2,4-dinitrophenyl group. Matrix metalloproteinases cleave this substrate at the Gly-Leu bond. Cleavage results in the loss of energy transfer and a large increase in fluorescence of the MCA group. This substrate is commercially available from Bachem, Switzerland.
Enzyme inhibition assays were carried out in MRB which consisted of 50 mM HEPES/NaOH, pH 7.0, 10 mM CaCl2 and 0,02% (w/v) PEG 8000 at 25°C. MMP microfluorometric profiling assay was done in white U-bottomed 96-well plates (Microfluor 1 White, Dynex, USA) with a final substrate concentration of 6 µM MCA-peptide, approximately 0.3 to 5 nM MMP with variable inhibitor concentrations and 2% DMSO vehicle. From a 1.5 mM stock (100% DMSO) the inhibitors were serially diluted with MRB to 15, 10, 5, 3, 1, 0.6, 0.3, 0.1, 0.05, 0.01 and 0.005 µM final assay concentration. Column 1, rows A through H, contained only DMSO for the "enzyme-only" wells in the assay. […] Each measurement was done in triplicate to ensure statistically significant results. The experiment was further controlled for background fluorescence of the substrate, for fluorescence of fully cleaved substrate and for fluorescence quenching or augmentation from solutions containing the test compounds.
Datapoints from eight different MMPs generated on the SpectraFluor Plus were directly visualized on a master Excel spreadsheet. The response of inhibition was determinated for each inhibitor concentration by comparing the amount of hydrolysis (fluorescence units generated over 30 minutes of hydrolysis) of wells containing compound with the "enzyme-only" wells in column 1. With the program GraFit (Erithacus Software Limited) a 4 parameter logistic fit to the dose-response data was used to calculate IC50 values for each compound.

T1 sequence (P22894 100-262 limits assumed): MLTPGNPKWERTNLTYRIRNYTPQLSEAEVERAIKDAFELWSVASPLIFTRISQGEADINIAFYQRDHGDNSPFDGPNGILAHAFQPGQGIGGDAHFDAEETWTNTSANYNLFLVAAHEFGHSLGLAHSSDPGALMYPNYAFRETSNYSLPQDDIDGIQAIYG

Row | SMILES | IC50 (read-out: cdMMP-8 IC50) [nM] | also measured
1 | C[C@@H](NS(=O)(=O)c1ccccc1)C(=O)NC1=NN=C(c2ccc(C#N)cc2)CS1 [Example 1, (2R)-N-[5-(4-Cyanophenyl)-6H-1,3,4-thiadiazine-2-yl]-2-[(phenylsulfonyl)amino]-propanamide] | 468 | –
2 | C[C@H](NS(=O)(=O)c1ccccc1)C(=O)NC1=NN=C(c2ccc(C#N)cc2)CS1 [Example 3, (2S)-N-[5-(4-Cyanophenyl)-6H-1,3,4-thiadiazin-2-yl]-2-[(phenylsulfonyl)amino]-propanamide] | 440 | –
3 | C[C@H](NS(=O)(=O)c1ccccc1)C(=O)NC1=NN=C(c2ccc(C(F)(F)F)cc2)CS1 [Example 4, (2S)-2-[(Phenylsulfonyl)amino]-N-{5-[4-(trifluormethyl)phenyl]-6H-1,3,4-thiadiazin-2-yl}propanamide] | – | IC50: 515 nM
4 | C[C@H](NS(=O)(=O)c1ccccc1)C(=O)NC1=NN=C(c2ccc([N+](=O)[O-])cc2)CS1 [Example 9, (2S)-N-[5-(4-Nitrophenyl)-6H-1,3,4-thiadiazin-2-yl]-2-[(phenylsulfonyl)amino]-propanamide] | 337 | –
5 | C[C@H](NS(=O)(=O)c1ccccc1)C(=O)NC1=NN=C(c2ccc(Cl)s2)CS1 [Example 10, (2S)-N-[5-(5-Chloro-2-thienyl)-6H-1,3,4-thiadiazin-2-yl]-2-[(phenylsulfonyl)-amino]propanamide] | 371 | –
6 | COc1ccc(C2=NN=C(NC(=O)[C@H](C)NS(=O)(=O)c3ccccc3)SC2)cc1 [Example 12, (2S)-N-[5-(4-Methoxyphenyl)-6H-1,3,4-thiadiazin-2-yl]-2-[(phenylsulfonyl)-amino]propanamide] | 354 | –
7 | COc1ccc(S(=O)(=O)NCC(=O)NC2=NN=C(c3c(F)c(F)c(F)c(F)c3F)CS2)cc1 [Example 16, 2-{[(4-Methoxyphenyl)sulfonyl]amino}-N-[5-(2,3,4,5,6-pentafluorophenyl)-6H-1,3,4-thiadiazin-2-yl]acetamide] | 527 | –
8 | CC(C)(C)c1ccc(S(=O)(=O)NCC(=O)NC2=NN=C(c3ccc(Cl)cc3Cl)CS2)cc1 [Example 18, 2-{[(4-tert-Butylphenyl)sulfonyl]amino}-N-[5-(2,4-dichlorophenyl)-6H-1,3,4-thiadiazin-2-yl]acetamide] | 492 | –
9 | COc1ccc(S(=O)(=O)NCC(=O)NC2=NN=C(c3ccc(Cl)cc3Cl)CS2)cc1 [Example 19, N-[5-(2,4-Dichlorophenyl)-6H-1,3,4-thiadiazin-2-yl]-2-{[(4-methoxyphenyl)-sulfonyl]amino}acetamide] | 306 | –
10 | O=C(CC1NC(=O)NC1=O)NC1=NN=C(c2ccc(C3CCCCC3)cc2)CS1 (stereo not drawn) [Example 25, N-[5-(4-Cyclohexylphenyl)-6H-1,3,4-thiadiazin-2-yl]-2-(2,5-dioxo-4-imidazolidinyl)acetamide] | – | percent inhibition (cdMMP-8, @ 15 (µM)): 56%^a)@ 15
11 | C[C@H](NS(=O)(=O)N1CCOCC1)C(=O)NC1=NN=C(c2ccc(Cl)cc2)CS1 [Example 28, (2S)-N-[5-(4-Chlorophenyl)-6H-1,3,4-thiadiazin-2yl-]-2-[(4-morpholinylsulfonyl)amino]propanamide] | – | IC50: 296 nM
12 | C=CCNC1=NN=C(c2ccc(Cl)cc2)CS1 [Example 31, N-Allyl-5-(4-chlorophenyl)-6H-1,3,4-thiadiazin-2-amine hydrobromide] | 51900 | –

Further lines, with some results ahead:

Row | IC50 (read-out: cdMMP-8 IC50) [nM] | SMILES | also measured
13 | 8630 | CC(C)[C@@H](NS(=O)(=O)c1ccccc1)C(=O)NC1=NN=C(c2ccc(Cl)cc2)CS1 [Example 2, (2R)-N-[5-(4-Chlorophenyl)-6H-1,3,4-thiadiazin-2-yl]-3-methyl-2-[(phenylsulfonyl)amino]butanamide] | –
14 | 231 | C[C@H](NS(=O)(=O)c1ccccc1)C(=O)NC1=NN=C(c2ccc(Br)cc2)CS1 [Example 6, (2S)-N-[5-(4-Bromophenyl)-6H-1,3,4-thiadiazin-2-yl]-2-[(phenylsulfonyl)amino]-propanamide] | –
15 | 599 | COc1ccc(S(=O)(=O)N[C@@H](C)C(=O)NC2=NN=C(c3ccc(C)cc3)CS2)cc1 [Example 17, (2S)-2-{[(4-Methoxyphenyl)sulfonyl]amino}-N-[5-(4-methylphenyl)-6H-1,3,4-thiadiazin-2-yl]propanamide] | –
16 | 1580 | CC(C)[C@H](NS(=O)(=O)c1ccccc1)C(=O)NC1=NN=C(c2ccc(Cl)cc2)CS1 [Example 22, (2S)-N-[5-(4-Chlorophenyl)-6H-1,3,4-thiadiazin-2-yl]-3-methyl-2-[(phenylsulfonyl)amino]butanamide] | –
17 | 648 | O=C(CC1NC(=O)NC1=O)NC1=NN=C(c2ccc(Cl)cc2)CS1 (stereo not drawn) [Example 23, N-[5-(4-Chlorophenyl)-6H-1,3,4-thiadiazin-2-yl]-2-(2,5-dioxo-4-imidazolidinyl)-acetamide] | –
18 | 578 | O=C(CC1NC(=O)NC1=O)NC1=NN=C(c2ccc(Br)cc2)CS1 (stereo not drawn) [Example 24, N-[5-(4-Bromophenyl)-6H-1,3,4-thiadiazin-2-yl]-2-(2,5-dioxo-4-imidazolidinyl)-acetamide] | –
19 | 1170 | O=C(CC1NC(=O)NC1=O)NC1=NN=C(c2ccc(N3CCCC3)cc2)CS1 (stereo not drawn) [Example 26, 2-(2,5-Dioxo-4-imidazolidinyl)-N-{5-[4-(1-pyrrolidinyl)phenyl]-6H-1,3,4-thiadiazin-2-yl}acetamide] | –
20 | 377 | C[C@H](NS(=O)(=O)c1cccnc1)C(=O)NC1=NN=C(c2ccc(Cl)cc2)CS1 [Example 29, (2S)-N-[5-(4-Chlorophenyl)-6H-1,3,4-thiadiazin-2-yl]-2-[(3-pyridylsulfonyl)-amino]propanamide] | –
21 | 692 | O=C1C[C@@H](C(=O)NC2=NN=C(c3ccc(Cl)cc3)CS2)NC(=O)N1 [Example 30, (4S)-N-[5-(4-Chlorophenyl)-6H-1,3,4-thiadiazin-2-yl]-2,6-dioxohexahydro-4-pyrimidinecarboxamide] | –
